# Test results reported in patent US12391686B2, “Compounds and uses thereof” (Foghorn Therapeutics Inc., priority 2019, dated 2025).
# Columns and labels:
# [1] = target: T1, BRD9 bromodomain (Flag-BRD9 P133-K239; Swiss Prot Q9H8M2) (Homo sapiens, UniProt Q9H8M2); assay: BRD9 Bromodomain TR-FRET Competition Binding Assay; details: competition with biotinylated BRD9 ligand; 90 minutes at room temperature
# T1 construct: His-Flag-BRD9 (P133-K239); Swiss Prot Q9H8M2; His6 with TEV site (mgsshhhhhhenlyfq/) (N, cleaved yes); made in house
# T1 sequence (Q9H8M2 133-239): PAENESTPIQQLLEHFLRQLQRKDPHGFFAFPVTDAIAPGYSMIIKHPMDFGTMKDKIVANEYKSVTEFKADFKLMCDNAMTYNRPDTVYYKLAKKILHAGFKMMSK
# Procedure: Procedure: His-Flag-BRD9 (P133-K239; Swiss Prot Q9H8M2; SEQ ID NO:1 mgsshhhhhhenlyfq/gdykddddkgslevlfqg/[…] […]) was cloned, expressed, purified, and then treated with TEV protease. Cleaved His tag was removed by purification. The binding of a biotinylated small molecule ligand of BRD9 was assessed via the LANCE® TR-FRET platform (PerkinElmer), and the compounds were assayed for inhibitory activity against this interaction.
# Results: A mixture of biotinylated-ligand and SureLight™ Allophycocyanin-Streptavidin (APC-SA, PerkinElmer AD0201) in 50 mM HEPES (pH 7.4), 50 mM NaCl, 1 mM TCEP (pH 7), 0.01% (v/v) Tween-20, 0.01% (w/v) bovine serum albumin was added to a white 384-well PerkinElmer Proxiplate Plus plate. DMSO or 3-fold serially diluted compounds were then added to the Proxiplate followed by addition of Flag-BRD9. After a 10-minute incubation at room temperature, Eu-W1024 anti-FLAG (PerkinElmer, AD0273) was added. The final reaction mixture that contained 3.75 nM biotinylated ligand, 3 nM Flag-BRD9, 7.5 nM SureLight™ Allophycocyanin-Streptavidin, and 0.2 nM Eu-W1024 anti-FLAG was incubated at room temperature for 90 minutes.
# The plates were then read on a PerkinElmer Envision plate reader to determine the ratio of emission at 665 nm over 615 nm. […]
# [2] = target: T2, Nanoluciferase-BRD9 fusion protein (3×FLAG-NLuc-BRD9) in SYO-1 cells (Homo sapiens, UniProt Q9H8M2); assay: SYO1 BRD9 NanoLuc Degradation Assay; assay type: cell-based; details: 6 hours; SYO-1 cells expressing 3×FLAG-NLuc-BRD9; top dose 1 μM; read-out: SYO1 BRD9-NanoLuc degradation IC50
# T2 construct: expressed in transfected cells; host or cells: SYO-1
# T2 sequence (Q9H8M2 1-597): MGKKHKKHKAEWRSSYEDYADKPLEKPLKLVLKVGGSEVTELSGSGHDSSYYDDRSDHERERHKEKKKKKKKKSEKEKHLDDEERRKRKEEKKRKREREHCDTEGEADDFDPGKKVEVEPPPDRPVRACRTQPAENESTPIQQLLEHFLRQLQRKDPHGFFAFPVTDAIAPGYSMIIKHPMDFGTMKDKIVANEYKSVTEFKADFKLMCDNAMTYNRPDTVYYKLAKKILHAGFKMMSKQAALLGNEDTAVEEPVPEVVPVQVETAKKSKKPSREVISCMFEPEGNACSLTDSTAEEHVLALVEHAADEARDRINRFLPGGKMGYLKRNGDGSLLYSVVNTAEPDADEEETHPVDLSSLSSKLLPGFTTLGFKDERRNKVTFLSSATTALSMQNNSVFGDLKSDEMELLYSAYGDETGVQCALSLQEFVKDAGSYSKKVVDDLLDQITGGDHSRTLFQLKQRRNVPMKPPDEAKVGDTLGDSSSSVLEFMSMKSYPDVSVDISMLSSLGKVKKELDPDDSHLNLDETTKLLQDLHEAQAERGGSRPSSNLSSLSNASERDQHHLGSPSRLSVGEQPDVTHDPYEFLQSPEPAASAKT
# In short: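 NanoLuc signal, read by Nano-Glo luminescence after 6 h compound exposure, gives % inhibition against DMSO-treated cells (high control) and cells given 1 μM of a standard BRD9 degrader (low control). Test compounds ran as 10-point 3-fold series, top 1 μM final, in duplicate on SYO-1 cells stably expressing 3×FLAG-NLuc-BRD9.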
IC50 [1] [nM],DC50 [2] [nM],Compound
≥ 10,≥ 10,"COc1cc(-c2cn(C)c(=O)c3cc(NCCCCCCCCNC(=O)COc4cccc5c4C(=O)N(C4CCC(=O)NC4=O)C5=O)ncc23)cc(OC)c1CN(C)C (stereo not shown) [Compound D8, N-[8-[(8-[4-[(dimethylamino)methyl]-3,5-dimethoxyphenyl]-6-methyl-5-oxo-2,6-naphthyridin-3-yl)amino]octyl]-2-[[2-(2,6-dioxopiperidin-3-yl)-1,3-dioxoisoindol-4-yl]oxy]acetamide]"
≥ 100,≥ 1000,"COc1cc(-c2cn(C)c(=O)c3cc(NC(=O)CCOCCOCCNc4cccc5c4C(=O)N(C4CCC(=O)NC4=O)C5=O)ncc23)cc(OC)c1CN(C)C (stereo not shown) [Compound D9, N-(8-[4-[(dimethylamino)methyl]-3,5-dimethoxyphenyl]-6-methyl-5-oxo-2,6-naphthyridin-3-yl)-3-[2-(2-[[2-(2,6-dioxopiperidin-3-yl)-1,3-dioxoisoindol-4-yl]amino]ethoxy)ethoxy]propanamide]"
≥ 10,≥ 10,"COc1cc(-c2cn(C)c(=O)c3cnc(NCCOCCOCCNc4cccc5c4C(=O)N(C4CCC(=O)NC4=O)C5=O)cc23)cc(OC)c1CN(C)C (stereo not shown) [Compound D10, 4-[[2-(2-[2-[(5-[4-[(dimethylamino)methyl]-3,5-dimethoxyphenyl]-7-methyl-8-oxo-2,7-naphthyridin-3-yl)amino]ethoxy]ethoxy)ethyl]amino]-2-(2,6-dioxopiperidin-3-yl)isoindole-1,3-dione formic acid]"
≥ 10,≥ 100,"COc1cc(-c2cn(C)c(=O)c3cnc(NC(=O)CCOCCOCCNc4cccc5c4C(=O)N(C4CCC(=O)NC4=O)C5=O)cc23)cc(OC)c1CN(C)C (stereo not shown) [Compound D11, N-(5-(4-((dimethylamino)methyl)-3,5-dimethoxyphenyl)-7-methyl-8-oxo-7,8-dihydro-2,7-naphthyridin-3-yl)-3-(2-(2-((2-(2,6-dioxopiperidin-3-yl)-1,3-dioxoisoindolin-4-yl)amino)ethoxy)ethoxy)propanamide formic acid]"
< 10,≥ 10,"COc1cc(-c2cn(C)c(=O)c3cc(N(C)CC(=O)NCCCCCOc4cccc5c4C(=O)N(C4CCC(=O)NC4=O)C5=O)ncc23)cc(OC)c1CN(C)C (stereo not shown) [Compound D12, 2-[(8-[4-[(dimethylamino)methyl]-3,5-dimethoxyphenyl]-6-methyl-5-oxo-2,6-naphthyridin-3-yl)(methyl)amino]-N-(5-[[2-(2,6-dioxopiperidin-3-yl)-1,3-dioxoisoindol-4-yl]oxy]pentyl)acetamide formic acid]"
≥ 100,≥ 1000,"COc1cc(-c2cn(C)c(=O)c3cc(NC(=O)CCOCCOCCNc4ccc5c(c4)C(=O)N(C4CCC(=O)NC4=O)C5=O)ncc23)cc(OC)c1CN(C)C (stereo not shown) [Compound D13, N-(8-[4-[(dimethylamino)methyl]-3,5-dimethoxyphenyl]-6-methyl-5-oxo-2,6-naphthyridin-3-yl)-3-[2-(2-[[2-(2,6-dioxopiperidin-3-yl)-1,3-dioxoisoindol-5-yl]amino]ethoxy)ethoxy]propanamide formic acid]"
≥ 10,≥ 100,"COc1cc(-c2cn(C)c(=O)c3cnc(NC(=O)CCOCCOCCNc4ccc5c(c4)C(=O)N(C4CCC(=O)NC4=O)C5=O)cc23)cc(OC)c1CN(C)C (stereo not shown) [Compound D14, N-(5-(4-((dimethylamino)methyl)-3,5-dimethoxyphenyl)-7-methyl-8-oxo-7,8-dihydro-2,7-naphthyridin-3-yl)-3-(2-(2-((2-(2,6-dioxopiperidin-3-yl)-1,3-dioxoisoindolin-5-yl)amino)ethoxy)ethoxy)propanamide formic acid]"
< 10,< 10,"CNc1cc2c(=O)n(C)cc(-c3cc(OC)c(CN4CCC5(CC4)CN(C(=O)CCCCOc4cccc6c4C(=O)N(C4CCC(=O)NC4=O)C6=O)CCO5)c(OC)c3)c2cn1 (stereo not shown) [Compound D15, 4-([5-[9-([2,6-dimethoxy-4-[2-methyl-7-(methylamino)-1-oxo-2,6-naphthyridin-4-yl]phenyl]methyl)-1-oxa-4,9-diazaspiro[5.5]undecan-4-yl]-5-oxopentyl]oxy)-2-(2,6-dioxopiperidin-3-yl)isoindole-1,3-dione formic acid]"
< 10,< 10,"COc1cc(-c2cn(C)c(=O)c3cnc(N(C)C)cc23)cc(OC)c1CN1CCC2(CC1)CN(C(=O)CCCCOc1ccc3c(c1)C(=O)N(C1CCC(=O)NC1=O)C3=O)CCO2 (stereo not shown) [Compound D19, 5-((5-(9-(4-(6-(dimethylamino)-2-methyl-1-oxo-1,2-dihydro-2,7-naphthyridin-4-yl)-2,6-dimethoxybenzyl)-1-oxa-4,9-diazaspiro[5.5]undecan-4-yl)-5-oxopentyl)oxy)-2-(2,6-dioxopiperidin-3-yl)isoindoline-1,3-dione formic acid]"
< 10,< 10,"COc1cc(-c2cn(C)c(=O)c3cnc(N(C)C)cc23)cc(OC)c1CN1CCC(CCN2CCN(c3ccc4c(c3)C(=O)N(C3CCC(=O)NC3=O)C4=O)CC2)CC1 (stereo not shown) [Compound D20, 5-(4-(2-(1-(4-(6-(dimethylamino)-2-methyl-1-oxo-1,2-dihydro-2,7-naphthyridin-4-yl)-2,6-dimethoxybenzyl)piperidin-4-yl)ethyl)piperazin-1-yl)-2-(2,6-dioxopiperidin-3-yl)isoindoline-1,3-dione formic acid]"
< 10,< 10,"COc1cc(-c2cn(C)c(=O)c3cnc(N(C)C)cc23)cc(OC)c1CN(C)CCOCCN1CCN(c2ccc3c(c2)C(=O)N(C2CCC(=O)NC2=O)C3=O)CC1 (stereo not shown) [Compound D21, 5-[4-(2-[2-[([4-[6-(dimethylamino)-2-methyl-1-oxo-2,7-naphthyridin-4-yl]-2,6-dimethoxyphenyl]methyl)(methyl)amino]ethoxy]ethyl)piperazin-1-yl]-2-(2,6-dioxopiperidin-3-yl)isoindole-1,3-dione]"

Compound,IC50 [1] [nM],DC50 [2] [nM]
"CNc1cc2c(=O)n(C)cc(-c3cc(OC)c(CN4CCC5(CC4)CN(C(=O)CCCOc4cccc6c4C(=O)N(C4CCC(=O)NC4=O)C6=O)CCO5)c(OC)c3)c2cn1 (stereo not shown) [Compound D16, 4-(4-(9-(2,6-dimethoxy-4-(2-methyl-7-(methylamino)-1-oxo-1,2-dihydro-2,6-naphthyridin-4-yl)benzyl)-1-oxa-4,9-diazaspiro[5.5]undecan-4-yl)-4-oxobutoxy)-2-(2,6-dioxopiperidin-3-yl)isoindoline-1,3-dione formic acid]",< 10,< 10
"CNc1cc2c(=O)n(C)cc(-c3cc(OC)c(CN4CCN(C(=O)CCCOc5cccc6c5C(=O)N(C5CCC(=O)NC5=O)C6=O)CC4)c(OC)c3)c2cn1 (stereo not shown) [Compound D17, 4-(4-(4-(2,6-dimethoxy-4-(2-methyl-7-(methylamino)-1-oxo-1,2-dihydro-2,6-naphthyridin-4-yl)benzyl)piperazin-1-yl)-4-oxobutoxy)-2-(2,6-dioxopiperidin-3-yl)isoindoline-1,3-dione formic acid]",≥ 10,< 10
"COc1cc(-c2cn(C)c(=O)c3cnc(N(C)C)cc23)cc(OC)c1CN1CCC2(CC1)CN(C(=O)CCCOc1cccc3c1C(=O)N(C1CCC(=O)NC1=O)C3=O)CCO2 (stereo not shown) [Compound D18, 4-(4-(9-(4-(6-(dimethylamino)-2-methyl-1-oxo-1,2-dihydro-2,7-naphthyridin-4-yl)-2,6-dimethoxybenzyl)-1-oxa-4,9-diazaspiro[5.5]undecan-4-yl)-4-oxobutoxy)-2-(2,6-dioxopiperidin-3-yl)isoindoline-1,3-dione formic acid]",< 10,< 10
